Experimental findings from patent US8415374B2, “Combinations of hepatitis C virus inhibitors” (Bristol-Myers Squibb Company, priority 2009, dated 2013) are described below.

Common to all, as to format: cell-based, Hepatitis C virus
Test [1] has as its system genotype 1a HCV replicon cells. Nature of the test: HCV replicon luciferase assay, genotype 1a (monotherapy and combination studies). To be noted: genotype 1a replicon, monotherapy, 3 days. Background: Replicon systems follow genome replication, usually without infectious particles.
Test [2] relates to genotype 1b HCV replicon cells. Nature of the test: HCV replicon luciferase assay, genotype 1b (monotherapy and combination studies). How it is done: (§1) The Huh-7 cell-line used for these studies was obtained from Dr. Ralf Bartenschlager (University of Heidelberg, Heidelberg, Germany) and was propagated in DMEM containing 10% FBS, 10 U/ml penicillin and 10 μg/ml streptomycin. The HCV replicons used in these studies were generated at Bristol-Myers Squibb using the procedure described in WO2004014852. The coding sequence of the published genotype 1b HCV replicon (Lohmann, V., F. Korner, J.-O. Koch, U. Herian, L. Theilmann, and R. Bartenschlager 1999, Science 285:110-113) was synthesized by Operon Technologies, Inc. (Alameda, Calif.) using the sequence set forth in EMBL Accession No. AJ242652, nucleotides 1801 to 7758. The functional replicon was then assembled in plasmid pGem9zf(+) (Promega, Madison, Wis.) using standard molecular biology techniques. To create a replicon encoding a luciferase reporter, the gene encoding humanized Renilla Luciferase protein was introduced upstream of the neomycin phosphotransferase gene. The resulting replicon consists of (i) the HCV 5′ UTR fused to the first 12 amino acids of the capsid protein, (ii) the renilla luciferase gene, (iii) the neomycin phosphotransferase gene (neo), (iv) the IRES from encephalomyocarditis virus (EMCV), and (v) HCV NS3 to NS5B genes and the HCV 3′ UTR.
(§2) HCV replicon cell lines were isolated from colonies as described by Lohman, et. al (Lohmann, V., F. Korner, J.-O. Koch, U. Herian, L. Theilmann, and R. Bartenschlager 1999, Science 285:110-113) and used for all experiments. Briefly, replicon clones were linearized with ScaI and RNA transcripts synthesized in vitro using the T7 MegaScript transcription kit (Ambion, Austin, Tex.) according to manufacturer's directions. Ten to 20 μg of in vitro transcribed replicon RNA was introduced into 4−5×10^6 Huh-7 cells by transfection with DMRIE-C reagent (Invitrogen Corporation, Carlsbad, Calif.) following manufacturer's protocols. After 24 h, selective media containing 0.5 mg/mL Geneticin (G418, Gibco-BRL, Rockville, Md.) was added and media was changed every 3 to 5 days. After approximately 4 weeks, cells were expanded for further analysis. Cells were maintained at 37° C. in DMEM (Gibco-BRL, Rockville, Md.) with 10% heat inactivated calf serum (Sigma), penicillin/streptomycin, and 0.5 mg/ml G418.
(§3) To determine compound efficacy, HCV replicon cells were plated at a density of 10^4 per well in 96-well plates in DMEM media containing 10% FBS. Following incubation overnight, compounds serially diluted in DMSO, or DMSO alone, were added to individual wells to a final DMSO concentration of 0.5%. Cell plates were then incubated at 37° C. for 3 days prior to assaying for cytotoxicity and HCV inhibition. Cell viability was measured using an Alamar blue assay and CC50 values were calculated using the median effect equation.
(§4) Plates were then washed two times with PBS and renilla luciferase activity assayed using a Dual-Glo Luciferase Assay System (Promega Corporation, Madison, Wis.) according to the manufacturer's directions. Plates were read on a TopCount NXT Microplate Scintillation and Luminescence Counter (Packard Instrument Company). The 50% effective concentration (EC50) was calculated by using Excel Fit (Version 2.0, Build 30). Known x (compound concentration) and y (% relative to DMSO-only control wells) values were used to calculate the EC50 with Excel Fit equation 205, represented as y=A+((B−A)/(1+((C/x)^D))), where A and B equal the bottom and top plateaus of the curve, respectively, C equals the x value at the middle of the curve, and D equals the slope factor.
(§5) For inhibitor combination studies, IFN-α and inhibitors of HCV NS5A and the NS3 protease were each tested at eleven concentrations. Stock solutions, 200 times the desired final assay concentration, were prepared by 3-fold dilution in DMSO prior to addition to cells/media. The compounds were tested as monotherapies and in combinations with the compound of formula (I) at various concentration ratios.

Test [3] concerns HCV replicon. Nature of the test: HCV replicon luciferase assay, triple combinations with lambda interferons (genotype not stated). How it is done:
as §1, §2, §3, §4, §5

Test [4] has as its target HCV replicon. Described as above. The conditions noted are these: monotherapy (Table 6).

pEC50: −log10 of the molar value. Where “and” joins values, the source holds several entries; their conditions need not be identical. Equal entries are not always repeated. Where two headings read alike, the source gives them in different places.

Broadly, the pEC50 is −log10 of the EC50, conventionally taken in molar units. Turning to `C=C[C@@H]1C[C@]1(NC(=O)[C@@H]1C[C@@H](Oc2ncc(OC)c3ccc(Cl)cc23)CN1C(=O)[C@@H](NC(=O)OC(C)(C)C)C(C)(C)C)C(=O)NS(=O)(=O)C1CC1` [NS3 protease inhibitor of formula (II)], the pEC50 in test [1] (Hepatitis C virus, 72 h, read-out: NS3 Protease Inhibitor EC50) was 8.11; in test [1] (read-out: NS3 Protease Inhibitor EC50) it was 8.07; in test [2] (Hepatitis C virus, 72 h, genotype 1b replicon, monotherapy, 3 days (Table 3), read-out: NS3 Protease Inhibitor EC50), 9.30; in test [2] (Hepatitis C virus, genotype 1b replicon cells, monotherapy (Table 4), read-out: NS3 Protease Inhibitor EC50) it was 8.89; in test [2] (genotype 1b replicon cells, monotherapy (Table 4), read-out: NS3 Protease Inhibitor EC50), 8.66 and 8.72 and 8.82; in test [2] (genotype 1b replicon, monotherapy, 3 days (Table 3), read-out: NS3 Protease Inhibitor EC50) it was 9.22. The pEC50 with HCV replicon [3] (Hepatitis C virus, monotherapy (Table 5), read-out: NS3 Protease Inhibitor EC50) is 9.20; with HCV replicon [3] (Hepatitis C virus, monotherapy (Table 6), read-out: NS3 Protease Inhibitor EC50), 8.85; in the test on HCV replicon [3] (monotherapy (Table 5), read-out: NS3 Protease Inhibitor EC50) it was 9.02 and 8.96; with HCV replicon [3] (monotherapy (Table 6), read-out: NS3 Protease Inhibitor EC50), 8.92 and 8.64.

As for `COC(=O)N[C@H](C(=O)N1CCC[C@H]1c1ncc(-c2ccc(-c3ccc(-c4cnc([C@@H]5CCCN5C(=O)[C@@H](NC(=O)OC)C(C)C)[nH]4)cc3)cc2)[nH]1)C(C)C` [NS5A inhibitor of formula (I)], the pEC50 in test [1] (Hepatitis C virus, 72 h, read-out: NS5A Inhibitor EC50) is 10.43; in test [1] (read-out: NS5A Inhibitor EC50), 10.35; in test [2] (Hepatitis C virus, 72 h, genotype 1b replicon, monotherapy, 3 days (Table 3), read-out: NS5A Inhibitor EC50) it was 11.52; in test [2] (Hepatitis C virus, genotype 1b replicon cells, monotherapy (Table 4), read-out: NS5A Inhibitor EC50) it was 11.30; in test [2] (genotype 1b replicon cells, monotherapy (Table 4), read-out: NS5A Inhibitor EC50) it was 11.22; in the test with HCV replicon [3] (Hepatitis C virus, monotherapy (Table 5), read-out: NS5A Inhibitor EC50), 11.52. The pEC50 with HCV replicon [3] (Hepatitis C virus, monotherapy (Table 6), read-out: NS5A Inhibitor EC50) was 11.10; in the test with HCV replicon [3] (monotherapy (Table 5), read-out: NS5A Inhibitor EC50) it was 11.40; in the test on HCV replicon [3] (monotherapy (Table 6), read-out: NS5A Inhibitor EC50), 11.05 and 11.30.

Regarding “rIFNλ1: Recombinant IL-29 expressed in E. coli as a modified N-terminal methionylated form of human IL-29”, the “rIFNλ1 EC50” value at HCV replicon [4] is 0.52 ng/mL and 0.27 ng/mL and 0.53 ng/mL.
